Laboratory results taken from a compilation of properties of binary mixtures (doi:10.1021/je100671v).

Test: xn = mol fraction of the nth substance listed
Conditions: 101.3 kPa

CCCCCCCC(=O)[O-].c1c[nH+]c[nH]1 + CC#N
viscosity [mPa·s]
Conditions	x2 = 0	x2 = 0.1044	x2 = 0.1986	x2 = 0.298	x2 = 0.4005	x2 = 0.499	x2 = 0.5995	x2 = 0.6924	x2 = 0.7988	x2 = 0.8996
293.15 K	88.5	66	50.42	–	25.96	–	–	5.8	2.747	–
298.15 K	71.3	54.3	41.88	32	22.7	16.11	10	6.3	3.3	1.199
303.15 K	–	–	35.3	27.47	20.17	14.67	–	5.6	2.402	1.21
308.15 K	45.3	37	30.04	23.68	17.89	–	8.4	5.5	2.808	1.241
313.15 K	36.92	31.4	26.1	20.83	15.6	11.4	7.4	4.4	2.23	1.397
318.15 K	30.56	26.31	22.3	–	–	10.7	7.51	5.1	3.1	1.77
323.15 K	25.33	22.52	19.55	16.21	13.2	–	–	5.38	3.223	1.6

CCCCCCCC(=O)[O-].c1c[nH+]c[nH]1 + CCCCCCCCO
viscosity [mPa·s]
Conditions	x2 = 0	x2 = 0.1011	x2 = 0.1999	x2 = 0.2991	x2 = 0.4	x2 = 0.5007	x2 = 0.6005	x2 = 0.6999	x2 = 0.799	x2 = 0.8997
293.15 K	88.5	78	64.4	51.03	–	30.85	–	18	13.4	10.5
298.15 K	71.3	63.2	52.31	41.9	–	–	–	15.39	11.7	–
303.15 K	56.48	50.26	42.2	34.44	27.5	21.67	–	13.24	10	8.33
308.15 K	45.3	–	34.63	28.56	23.23	18.76	14.95	–	9.4	7.64
313.15 K	36.92	33.14	28.5	23.44	19.4	15.57	–	9.79	7.5	5.94
318.15 K	30.56	–	23.63	19.8	16.4	13.05	10.7	8.46	–	–
323.15 K	25.33	–	20.17	–	14.21	11.6	9.4	7.48	5.9	–

CCCCCCCC(=O)[O-].c1c[nH+]c[nH]1 + CCO
viscosity [mPa·s]
Conditions	x2 = 0	x2 = 0.1043	x2 = 0.1984	x2 = 0.301	x2 = 0.4	x2 = 0.4786	x2 = 0.5999	x2 = 0.7006	x2 = 0.7999	x2 = 0.8989
293.15 K	88.5	68.7	–	–	29.8	22.9	–	10.32	6.03	3.236
298.15 K	71.3	55.78	44.5	34	25.5	20	13.3	9.32	5.47	–
303.15 K	56.48	–	36.53	28.9	22.3	17.8	–	8.4	4.93	–
308.15 K	45.3	36.81	30.43	24.8	19.9	16.4	11.4	7.77	4.54	2.471
313.15 K	–	31	26.09	–	17.2	14	–	–	4.19	2.278
318.15 K	30.56	26.2	22.4	18.8	15.3	12.6	–	6.3	3.96	–
323.15 K	25.33	22.3	19.6	16.7	14.1	12	8.9	6.4	4.43	–

CCCCCCCC(=O)[O-].c1c[nH+]c[nH]1 + O
viscosity [mPa·s]
Conditions	x2 = 0	x2 = 0.0989	x2 = 0.1964	x2 = 0.3042	x2 = 0.4091	x2 = 0.5119	x2 = 0.6017	x2 = 0.6643	x2 = 0.7995	x2 = 0.8154
293.15 K	88.5	67.9	58.6	–	–	45.7	–	34.9	22.18	20.63
298.15 K	71.3	54.06	46.3	43.3	41.1	–	32.99	29.09	–	17.59
303.15 K	56.48	41.7	36.57	–	33	30.4	27.23	–	16	14.75
308.15 K	45.3	33.19	29.22	27.6	26.5	25	22.3	20.32	13.52	12.62
313.15 K	36.92	27.32	–	22.8	21.89	20.82	18.94	17.17	11.72	–
318.15 K	30.56	–	20.39	–	18.6	17.87	–	14.9	10.4	–
323.15 K	–	–	17.55	–	16.17	15.72	14.35	13.4	9.76	–

CC#N + c1c[nH+]c[nH]1.CCCCCCCC(=O)[O-]
x1 = 1
Conditions	viscosity [mPa·s]
293.15 K	0.35
303.15 K	0.325
308.15 K	0.292
313.15 K	0.279
318.15 K	0.245

CCCCCCCCO + c1c[nH+]c[nH]1.CCCCCCCC(=O)[O-]
x1 = 1
Conditions	viscosity [mPa·s]
298.15 K	7.84
303.15 K	6.42
308.15 K	5.34
313.15 K	4.66
318.15 K	3.7
323.15 K	2.84

CCO + c1c[nH+]c[nH]1.CCCCCCCC(=O)[O-]
x1 = 1
Conditions	viscosity [mPa·s]
298.15 K	1.1
308.15 K	0.91
313.15 K	0.83
318.15 K	0.72
323.15 K	0.615

O + c1c[nH+]c[nH]1.CCCCCCCC(=O)[O-]
x1 = 1
Conditions	viscosity [mPa·s]
298.15 K	0.89
303.15 K	0.797
323.15 K	0.556
